The source made the active and inactive calls. The calls are words filed in the database; no cut-off is given here.
Tests used:
[1] = AUC (0 to t) in Sprague-Dawley rat at 10 mg/kg, po measured upto 1440 mins by LC/MS/MS analysis; assay type: ADME, organism-based; design: time < 1440 min, dose 10 mg/kg, route po; conditions: in vivo
Cholinesterase [2] = target: T1, Cholinesterase (Homo sapiens, UniProt P06276); assay: Inhibition of human BuChE using butyrylthiocholine iodide as substrate incubated for 10 mins followed by substrate addition by DTNB-reagent based Ellman's colorimetric assay
SH-SY5Y [3] = assay: Cytotoxicity against human SH-SY5Y cells assessed as survival rate at 100 uM measured after 24 hrs by MTT assay relative to control; assay type: functional; conditions: read-out: Survival
[4] = Cytotoxicity against mouse BV-2 cells assessed as survival rate at 100 uM measured after 24 hrs by MTT assay relative to control; assay type: toxicity, cell-based; conditions: read-out: Survival
L02 = assay: Cytotoxicity against human L02 cells assessed as survival rate at 100 uM measured after 24 hrs by MTT assay relative to control; assay type: functional; conditions: read-out: Survival
[5] = AUC (0 to t) in Sprague-Dawley rat at 10 mg/kg, iv measured upto 1440 mins by LC/MS/MS analysis; assay type: ADME, organism-based; design: time < 1440 min, dose 10 mg/kg, route iv; conditions: in vivo, 24 h
[6] = AUC (0 to infinity) in Sprague-Dawley rat at 10 mg/kg, po measured upto 1440 mins by LC/MS/MS analysis; assay type: ADME, organism-based; design: dose 10 mg/kg, time < 1440 min, route po; conditions: in vivo
[7] = AUC (0 to infinity) in Sprague-Dawley rat at 10 mg/kg, iv measured upto 1440 mins by LC/MS/MS analysis; assay type: ADME, organism-based; design: dose 10 mg/kg, time < 1440 min, route iv; conditions: in vivo, 24 h
[8] = MRT infinity in Sprague-Dawley rat at 10 mg/kg, po measured upto 1440 mins by LC/MS/MS analysis; assay type: ADME, organism-based; conditions: in vivo
[9] = MRT infinity in Sprague-Dawley rat at 10 mg/kg, iv measured upto 1440 mins by LC/MS/MS analysis; assay type: ADME, organism-based; conditions: in vivo
[10] = Half life in Sprague-Dawley rat at 10 mg/kg, po measured upto 1440 mins by LC/MS/MS analysis; assay type: ADME, organism-based; conditions: in vivo
[11] = Half life in Sprague-Dawley rat at 10 mg/kg, iv measured upto 1440 mins by LC/MS/MS analysis; assay type: ADME, organism-based; conditions: in vivo
[12] = Tmax in Sprague-Dawley rat at 10 mg/kg, po measured upto 1440 mins by LC/MS/MS analysis; assay type: ADME, organism-based; conditions: in vivo
[13] = Tmax in Sprague-Dawley rat at 10 mg/kg, iv measured upto 1440 mins by LC/MS/MS analysis; assay type: ADME, organism-based; conditions: in vivo
[14] = Cmax in Sprague-Dawley rat at 10 mg/kg, po measured upto 1440 mins by LC/MS/MS analysis; assay type: ADME, organism-based; design: time < 1440 min, dose 10 mg/kg, route po; conditions: in vivo, 24 h
[15] = Cmax in Sprague-Dawley rat at 10 mg/kg, iv measured upto 1440 mins by LC/MS/MS analysis; assay type: ADME, organism-based; design: dose 10 mg/kg, time < 1440 min, route iv; conditions: in vivo, 24 h
[16] = Oral bioavailability in Sprague-Dawley rat at 10 mg/kg measured upto 1440 mins by LC/MS/MS analysis; assay type: ADME, organism-based; conditions: in vivo
[17] = Acute toxicity in overnight fasted female ICR mouse assessed as animal death at 1 g/Kg, IG administered as single dose measured upto 15 days; conditions: in vivo, po, 1000 mg/kg, 360 h, time < 15 day
Cholinesterase [18] = target: Cholinesterase (Equus caballus, UniProt P81908); assay: Inhibition of equine serum BuChE using butyrylthiocholine iodide as substrate incubated for 10 mins followed by substrate addition by DTNB-reagent based Ellman's colorimetric assay
PC-12 [19] = assay: Cytotoxicity against rat PC12 cells assessed as survival rate at 100 uM measured after 24 hrs by MTT assay relative to control; conditions: PC-12, 24 h, read-out: Survival
SH-SY5Y [20] = assay: Cytotoxicity against human SH-SY5Y cells assessed as inhibition of cell growth measured after 24 hrs by MTT assay; assay type: functional, cell-based
[21] = Cytotoxicity against mouse BV-2 cells assessed as inhibition of cell growth measured after 24 hrs by MTT assay; assay type: toxicity, cell-based
Cholinesterase [22] = target: T1, Cholinesterase; assay: Binding affinity to human BChE assessed as dissociation constant by Surface Plasmon Resonance assay
[23] = Acute toxicity in overnight fasted male ICR mouse assessed as animal death at 1 g/Kg, IG administered as single dose measured upto 15 days; conditions: in vivo, po, 1000 mg/kg, 360 h, time < 15 day
[24] = Acute toxicity in overnight fasted male ICR mouse assessed as body weight loss at 1 g/Kg, IG administered as single dose measured upto 15 days; conditions: in vivo, po, 1000 mg/kg, 360 h, time < 15 day
[25] = Acute toxicity in overnight fasted female ICR mouse assessed as body weight loss at 1 g/Kg, IG administered as single dose measured upto 15 days; conditions: in vivo, po, 1000 mg/kg, 360 h, time < 15 day
[26] = Acute toxicity in overnight fasted male ICR mouse assessed as abnormal behavior at 1 g/Kg, IG administered as single dose measured upto 15 days; conditions: in vivo, po, 1000 mg/kg, 360 h, time < 15 day
[27] = Acute toxicity in overnight fasted female ICR mouse assessed as abnormal behavior at 1 g/Kg, IG administered as single dose measured upto 15 days; conditions: in vivo, po, 1000 mg/kg, 360 h, time < 15 day
[28] = Metabolic stability in human liver microsomes assessed as half life at 1 uM incubated upto 50 mins in presence of NADPH by LC/MS/MS analysis; assay type: ADME, Microsome
[29] = Metabolic stability in human liver microsomes assessed as parent compound remaining at 1 uM incubated upto 50 mins in presence of NADPH by LC/MS/MS analysis; assay type: ADME, Microsome; conditions: read-out: Stability
Mus musculus [30] = assay: Neuroprotective activity against Abeta42 induced cognition impairement in AD mouse model assessed as reduction in latency time to platform at 10 mg/kg, po measured after 14 days by Morris water maze analysis; assay type: functional, organism-based; conditions: time 14.0 day
Mus musculus [31] = assay: Neuroprotective activity against Abeta42 induced cognition impairement in AD mouse model assessed as reduction in confusion of escape trajectory at 10 mg/kg, po measured after 14 days; assay type: functional, organism-based; conditions: time 14.0 day
SH-SY5Y [32] = assay: Neuroprotective activity against Abeta1-42 induced toxicity in human SH-SY5Y cells at 1 to 5 uM preincubated for 1 hr with compound followed by co-incubation with Abeta1-42 and measured after 24 hrs by MTT assay; assay type: functional, cell-based; conditions: dose 1-5 µM, time 25.0 hrs
SH-SY5Y [33] = assay: Neuroprotective activity against glutamate induced toxicity in human SH-SY5Y cells at low concentration preincubated for 1 hr with compound followed by co-incubation with glutamate and measured after 24 hrs by MTT assay; assay type: functional, cell-based; conditions: time 25.0 hrs
SH-SY5Y [34] = assay: Neuroprotective activity against glutamate induced toxicity in human SH-SY5Y cells assessed as effect on cell survival rate at 10 to 20 uM preincubated for 1 hr with compound followed by co-incubation with glutamate and measured after 24 hrs by MTT assay; assay type: functional, cell-based; conditions: dose 10-20 µM, time 25.0 hrs
PC-12 [35] = assay: Cytoprotective activity against H2O2 induced cell damage in rat PC12 cells at 10 to 20 uM preincubated for 1 hr with compound followed by co-incubation with H2O2 and measured after 24 hrs by MTT assay; assay type: functional, cell-based; conditions: dose 10-20 µM, time 25.0 hrs
BV-2 = assay: Induction of antioxidant effect in mouse BV-2 cells assessed as prevention of LPS-induced ROS production preincubated for 1 hr with compound followed by LPS stimulation and measured after 24 hrs by DCFH-DA staining based inverted fluorescence microscopy analysis; assay type: functional, cell-based; conditions: time 25.0 hrs
SH-SY5Y [36] = assay: Induction of antioxidant effect in human SH-SY5Y cells assessed as prevention of Abeta1-42 induced ROS production preincubated for 1 hr with compound followed by Abeta1-42 stimulation and measured after 24 hrs by DCFH-DA staining based inverted fluorescence microscopy analysis; assay type: functional, cell-based; conditions: time 25.0 hrs

T1 sequence (P06276 whole entry): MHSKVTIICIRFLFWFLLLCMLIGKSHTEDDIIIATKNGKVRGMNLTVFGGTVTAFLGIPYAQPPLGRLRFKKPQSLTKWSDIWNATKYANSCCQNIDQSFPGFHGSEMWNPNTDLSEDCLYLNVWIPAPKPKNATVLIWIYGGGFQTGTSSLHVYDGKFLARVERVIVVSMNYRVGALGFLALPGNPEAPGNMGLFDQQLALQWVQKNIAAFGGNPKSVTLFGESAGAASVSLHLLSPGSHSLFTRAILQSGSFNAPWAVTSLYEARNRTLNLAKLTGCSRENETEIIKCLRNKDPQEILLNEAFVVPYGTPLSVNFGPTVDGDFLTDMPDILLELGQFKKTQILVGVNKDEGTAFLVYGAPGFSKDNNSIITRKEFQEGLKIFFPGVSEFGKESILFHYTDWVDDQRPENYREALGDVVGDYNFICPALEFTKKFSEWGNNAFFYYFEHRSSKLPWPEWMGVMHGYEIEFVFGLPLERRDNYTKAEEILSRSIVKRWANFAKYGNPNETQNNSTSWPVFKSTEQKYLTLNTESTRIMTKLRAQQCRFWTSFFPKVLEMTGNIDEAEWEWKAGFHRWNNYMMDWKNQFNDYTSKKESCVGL
Chain of Cholinesterase (Equus caballus, UniProt P81908) (P81908 whole entry): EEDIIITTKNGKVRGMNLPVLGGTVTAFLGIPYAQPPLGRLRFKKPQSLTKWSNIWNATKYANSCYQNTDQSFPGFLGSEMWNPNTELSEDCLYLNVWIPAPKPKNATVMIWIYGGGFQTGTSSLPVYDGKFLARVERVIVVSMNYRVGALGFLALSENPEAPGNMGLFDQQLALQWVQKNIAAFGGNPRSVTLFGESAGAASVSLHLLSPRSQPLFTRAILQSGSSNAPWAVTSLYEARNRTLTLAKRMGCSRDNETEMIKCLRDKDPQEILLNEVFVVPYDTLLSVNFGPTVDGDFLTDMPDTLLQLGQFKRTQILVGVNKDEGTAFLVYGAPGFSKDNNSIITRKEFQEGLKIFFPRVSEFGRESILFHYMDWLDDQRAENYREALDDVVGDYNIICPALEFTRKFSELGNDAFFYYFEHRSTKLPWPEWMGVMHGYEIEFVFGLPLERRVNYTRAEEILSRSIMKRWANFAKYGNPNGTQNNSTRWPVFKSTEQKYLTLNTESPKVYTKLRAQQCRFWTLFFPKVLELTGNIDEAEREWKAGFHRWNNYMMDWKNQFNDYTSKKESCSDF

Nc1nonc1-c1nc2ccccc2n1CC(=O)Nc1cnc2ccccc2c1
AUC(0-t) at 24 h [1]: 3360 ng·h/mL
IC50 (Cholinesterase [2]): 50.1 nM
viability at 100 µM (SH-SY5Y [3]): 62.2%
viability at 24 h, 100 µM [4]: 62.7%
viability at 100 µM (L02): 70.6%
AUCt [5]: 15662.39 ng·h/mL
AUC(0-inf) [6]: 3780 ng·h/mL
AUC [7]: 15988.79 ng·h/mL
MRT inf [8]: 7.37 h
MRT inf [9]: 3.11 h
half-life [10]: 4.74 h
half-life [11]: 2.68 h
Tmax [12]: 0.18 h
Tmax [13]: 1 min
Cmax [14]: 975.05 ng/mL
Cmax [15]: 9752.7 ng/mL
bioavailability [16]: 23.6%

Nc1nonc1-c1nc2ccccc2n1CC(=O)Nc1cc([N+](=O)[O-])cc([N+](=O)[O-])c1
Activity [17]: Non-Toxic
IC50 (Cholinesterase [18]): 2.94 nM
IC50 (Cholinesterase [2]): 34.6 nM
viability at 100 µM (PC-12 [19]): 50.8%
IC50 (SH-SY5Y [20]): 72300 nM
IC50 at 24 h [21]: 19200 nM
viability at 100 µM (L02): 52.4%
Kd (Cholinesterase [22]): 3.09 nM
Activity (Cholinesterase [22]; dose 0.3125-40 nM): Dose-Dependent Effect
Activity [23]: Non-Toxic
Activity [24]: Non-Toxic
Activity [25]: Non-Toxic
Activity [26]: Non-Toxic
Activity [27]: Non-Toxic
half-life at 1 µM [28]: 11.5 h
remaining at 50 min, 1 µM [29]: 92.8%
Activity (Mus musculus [30]): Active
Activity (Mus musculus [31]): Active
Activity (SH-SY5Y [32]): Active
Activity (SH-SY5Y [33]): Active
Activity (SH-SY5Y [34]): Active
Activity (PC-12 [35]): Active
Activity (BV-2): Active
Activity (SH-SY5Y [36]): Active

— ChEMBL document CHEMBL5352386 (Eur J Med Chem, 2022)
